Assay results reported in ChEMBL document CHEMBL5550098, “Discovery of N-benzylbenzamide-based allosteric inhibitors of Aurora kinase A” (Bioorg Med Chem, 2024).
In brackets after ≈: the same amount, converted by molar mass. Activity calls are given as the source filed them. The rule behind the calls is not given here.

Legend:
Aurora kinase A = target: T1, Aurora kinase A (Homo sapiens, UniProt O14965); assay: Allosteric inhibition of AurkA (unknown origin)
T1 sequence (O14965 whole entry): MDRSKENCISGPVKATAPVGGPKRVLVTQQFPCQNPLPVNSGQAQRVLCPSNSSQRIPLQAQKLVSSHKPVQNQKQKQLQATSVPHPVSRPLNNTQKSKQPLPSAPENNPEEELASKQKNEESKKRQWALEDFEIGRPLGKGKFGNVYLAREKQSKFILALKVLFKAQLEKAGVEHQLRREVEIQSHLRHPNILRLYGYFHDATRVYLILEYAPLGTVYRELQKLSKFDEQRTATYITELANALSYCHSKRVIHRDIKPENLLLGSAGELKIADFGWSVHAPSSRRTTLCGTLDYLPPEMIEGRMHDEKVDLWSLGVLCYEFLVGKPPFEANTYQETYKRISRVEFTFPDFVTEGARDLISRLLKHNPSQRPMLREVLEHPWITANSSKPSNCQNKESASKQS

HeLa [1] = assay: Inhibition of DNA replication during G1 to S transition in nocodazole synchronized human HeLa cells assessed as reduction in Edu content in new synthesized DNA by measuring Edu positive cells at 1 uM measured after 8 hrs by Edu incorporation based flow cytometry analysis (reference value: 19.7%); format: functional, cell-based; design: scale not given: the % may be the effect or the level left
HeLa [2] = assay: Inhibition of DNA replication during G1 to S transition in nocodazole synchronized human HeLa cells assessed as reduction in Edu content in new synthesized DNA by measuring Edu positive cells at 1 uM measured after 9 hrs by Edu incorporation based flow cytometry analysis (reference value: 16.8%); format: functional, cell-based; design: scale not given: the % may be the effect or the level left
A549 = assay: Induction of cell cycle arrest in human A549 cells assessed as G1/S phase transition at 100 uM measured after 48 hrs by RNase/PI staining based flow cytometry analysis; format: functional
HCT-116 [3] = assay: Induction of cell cycle arrest at G2/M phase in human HCT-116 cells at 100 uM measured after 48 hrs by RNase/PI staining based flow cytometry analysis; format: functional
NCI-H358 = assay: Induction of cell cycle arrest in human NCI-H358 cells assessed as G1/S phase transition at 100 uM measured after 48 hrs by RNase/PI staining based flow cytometry analysis; format: functional
HT-29 [4] = assay: Induction of cell cycle arrest at G2/M phase in human HT-29 cells at 100 uM measured after 48 hrs by RNase/PI staining based flow cytometry analysis; format: functional
HeLa [5] = assay: cells; settings: Homo sapiens, 72 h
HeLa [6] = assay: Inhibition of DNA replication during G1 to S transition in nocodazole synchronized human HeLa cells assessed as reduction in Edu content in new synthesized DNA by measuring Edu positive cells at 100 uM measured after 8 hrs by Edu incorporation based flow cytometry analysis (reference value: 19.7%); format: functional; design: scale not given: the % may be the effect or the level left
[7] = Aqueous solubility of compound at pH 7.4; format: physicochemical
HeLa [8] = assay: Induction of cell cycle arrest in human HeLa cells at 100 uM measured after 48 hrs by RNase/PI staining based flow cytometry analysis; format: functional
HeLa [9] = assay: Inhibition of DNA replication during G1 to S transition in nocodazole synchronized human HeLa cells assessed as reduction in Edu content in new synthesized DNA by measuring Edu positive cells at 100 uM measured after 9 hrs by Edu incorporation based flow cytometry analysis (reference value: 16.8%); format: functional; design: scale not given: the % may be the effect or the level left
HT-29 [10] = assay: Downregulation of phospho-histone H3 level at Ser10 residue in human HT-29 cells at 20 uM measured at 12 to 24 hrs by Western blot analysis; format: functional, cell-based; settings: time 12-24 hrs
PANC-1 = assay: Induction of cell cycle arrest in human PANC-1 cells at 100 uM measured after 48 hrs by RNase/PI staining based flow cytometry analysis; format: functional
HeLa [11] = assay: Antiproliferative activity against human HeLa cells assessed as inhibition of cell growth incubated for 72 hrs in absence of PHA-767491 by celltiter-glo assay; format: functional
HT-29 [12] = assay: Downregulation of phospho-histone H3 level at Ser10 residue in human HT-29 cells at 20 uM measured at 48 hrs by Western blot analysis; format: functional, cell-based
[13] = Permeability of compound at 5 uM by PAMPA assay; format: ADME; settings: read-out: permeability
HCT-116 [14] = assay: Downregulation of phospho-histone H3 level at Ser10 residue in human HCT-116 cells at 20 uM measured at 12 to 24 hrs by Western blot analysis; format: functional, cell-based; settings: time 12-24 hrs
HCT-116 [15] = assay: Downregulation of phospho-histone H3 level at Ser10 residue in human HCT-116 cells at 20 uM measured at 48 hrs by Western blot analysis; format: functional, cell-based

CC1=C(C(=O)Nc2ccc(F)cc2F)[C@H](c2cccnc2)C2=C(C[C@@H](c3ccccc3)CC2=O)N1
IC50 (Aurora kinase A): < 20 µM

CC(Oc1ccc2c(c1)c1ccnc3c4ccccc4c(=O)n2c13)C(=O)NCc1ccc2c(c1)OCO2 (stereo unspecified)
IC50 (Aurora kinase A): < 20 µM

Cc1cc(Nc2cc(N3CCN(C)CC3)nc(Sc3ccc(NC(=O)C4CC4)cc3)n2)n[nH]1
Activity (HeLa [1]): 21.7% | Activity (HeLa [2]): 22.1%

COc1ccc(CNC(=O)C(C)Oc2ccc3c(c2)c2ccnc4c5ccccc5c(=O)n3c24)cc1 (stereo unspecified)
IC50 (Aurora kinase A): < 20 µM

O=C(NCc1ccc2c(c1)OCO2)c1cccc(-c2ccncc2)c1
Activity (A549): Active | Activity (HCT-116 [3]): Active | Activity (NCI-H358): Active | Activity (HT-29 [4]): Active | GI50 (HeLa [5]): 14 µM | Activity (HeLa [6]): 7% | solubility [7]: 161 µM (≈ 53.5 µg/mL) | Activity (HeLa [8]): inactive | Activity (HeLa [9]): 1.6% | Activity (HT-29 [10]): inactive | Activity (PANC-1): inactive | GI50 (HeLa [11]): 71.7 µM | Activity (HT-29 [12]): Active | Papp at 5 µM [13]: 65.5 ×10⁻⁶ cm/s | Activity (HCT-116 [14]): inactive | Activity (HCT-116 [15]): Active
